Structures are written as SMILES.

In the test the target is T1, NA transporter (Rattus norvegicus, UniProt Q9WTR4).
T1 construct: synaptosomes from rat brain regions were freshly isolated; from tissue; host or cells: P2 synaptosome fraction from hypothalamus of male rat brain
T1 sequence (Q9WTR4 1-597): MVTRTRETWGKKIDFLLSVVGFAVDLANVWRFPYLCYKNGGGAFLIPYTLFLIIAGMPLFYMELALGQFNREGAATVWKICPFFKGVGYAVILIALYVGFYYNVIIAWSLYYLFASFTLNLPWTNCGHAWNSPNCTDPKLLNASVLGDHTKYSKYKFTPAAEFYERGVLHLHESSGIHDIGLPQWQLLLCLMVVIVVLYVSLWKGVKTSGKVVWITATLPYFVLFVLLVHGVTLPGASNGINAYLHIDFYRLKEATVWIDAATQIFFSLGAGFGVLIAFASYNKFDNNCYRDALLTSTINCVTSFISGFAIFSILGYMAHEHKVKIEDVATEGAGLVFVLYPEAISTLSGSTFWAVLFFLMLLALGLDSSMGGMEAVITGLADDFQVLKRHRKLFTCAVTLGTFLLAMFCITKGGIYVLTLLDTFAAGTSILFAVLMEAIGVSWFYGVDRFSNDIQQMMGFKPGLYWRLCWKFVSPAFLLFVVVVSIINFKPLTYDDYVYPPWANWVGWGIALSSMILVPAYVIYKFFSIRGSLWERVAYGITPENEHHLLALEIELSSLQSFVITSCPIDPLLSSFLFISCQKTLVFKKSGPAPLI
Kind of test: Noradrenalin uptake inhibition (NA-uptake) in synaptosomes. Format: biochemical. As to conditions: rat hypothalamus synaptosomes. The text has this: Tests on Noradrenalin Uptake Inhibition (NA-Uptake Inhibition)
In order to be able to carry out these in vitro studies, synaptosomes from rat brain regions were freshly isolated.
In turn, `CCSCCNC(=O)C1=NOC2(CCN(S(=O)(=O)CC34CCC(CC3=O)C4(C)C)CC2)C1` (centres unmarked) [Example 111, 8-(7,7-dimethyl-2-oxo-bicyclo[2.2.1]hept-1-ylmethane-sulphonyl)-1-oxa-2,8-diaza-spiro[4,5]dec-2-ene-3-carboxylic acid (2-ethylsulphanyl-ethyl)-amide] came in with an inhibition at 10 µM of 40%. As for `CC(Oc1ccccc1)C(=O)N1CCC2(CC1)CC(C(=O)NCc1ccccc1)=NO2` (centres unmarked) [Example 149, 8-(2-phenoxy-propionyl)-1-oxa-2,8-diaza-spiro[4,5]dec-2-ene-3-carboxylic acid benzylamide], 10 µM produced 50% inhibition. `O=C(NCc1cccs1)C1=NOC2(CCN(S(=O)(=O)c3ccc(Cl)cc3)CC2)C1` [Example 127, 8-(4-chloro-benzenesulphonyl)-1-oxa-2,8-diaza-spiro[4,5]dec-2-ene-3-carboxylic acid (thiophen-2-ylmethyl)-amide]: the inhibition at 10 µM is 51%. The molecule `CCOC(=O)N1CCC(NC(=O)C2=NOC3(CCN(S(=O)(=O)c4cccc(C(F)(F)F)c4)CC3)C2)CC1` [Example 122, 4-{[8-(3-trifluoromethyl-benzenesulphonyl)-1-oxa-2,8-diaza-spiro[4,5]dec-2-ene-3 carbonyl]-amino}-piperidine-1-carboxylic acid ethyl ester] had an inhibition at 10 µM of 41%. Same read-out and setting: the value for `COc1ccc(S(=O)(=O)N2CCC3(CC2)CC(C(=O)NC2CC2c2ccccc2)=NO3)cc1` (centres unmarked) [Example 182, 8-(4-methoxy-benzenesulphonyl)-1-oxa-2,8-diaza-spiro[4,5]dec-2-ene-3-carboxylic acid (2-phenyl-cyclopropyl)-amide] was 73%.

Turning to `Cc1ccc(S(=O)(=O)N2CCC3(CC2)CC(C(=O)N2CCN(C(C)c4ccccc4)CC2)=NO3)cc1` (stereo not drawn) [Example 32, [4-(1-phenyl-ethyl)-piperazin-l-yl]-[8-(toluene-4-sulphonyl)-1-oxa-2,8-diaza-spiro[4,5]dec-2-en-3-yl]-methanone], the “NA-uptake, 10 μM, % inhibition” value stood at 43%. For the molecule `O=C(C1=NOC2(CCN(S(=O)(=O)c3cc(Cl)ccc3Cl)CC2)C1)N1CCN(Cc2ccccc2)CC1` [Example 209, (4-benzyl-piperazin-l-yl)-[8-(2,5-dichloro-benzenesulphonyl)-1-oxa-2,8-diaza-spiro[4,5]dec-2-en-3-yl]-methanone], the “NA-uptake, 10 μM, % inhibition” value is reported as 51%. As for `CC(C)CNC(=O)C1=NOC2(CCN(C(=O)c3ccc(F)cc3)CC2)C1` [Example 137, 8-(4-fluoro-benzoyl)-1-oxa-2,8-diaza-spiro[4,5]dec-2-ene-3-carboxylic acid isobutyl-amide], testing at 10 µM gave an inhibition of 49%. The molecule `Cc1oc(C(C)(C)C)cc1C(=O)N1CCC2(CC1)CC(C(=O)NC1CCCC1)=NO2` [Example 126, 8-(5-tert-butyl-2-methyl-furan-3-carbonyl)-1-oxa-2,8-diaza-spiro[4,5]dec-2-ene-3-carboxylic acid cyclopentylamide] showed an inhibition at 10 µM of 67%. `O=C(NCc1ccccc1)C1=NOC2(CCN(C(=O)c3cccnc3Oc3ccccc3)CC2)C1` [Example 203, 8-(2-phenoxy-pyridine-3-carbonyl)-1-oxa-2,8-diaza-spiro[4,5]dec-2-ene-3-carboxylic acid benzylamide] yielded an inhibition at 10 µM of 58%. The molecule `CCOC(=O)C1CCCCN1C(=O)C1=NOC2(CCN(S(=O)(=O)c3ccc(Cl)s3)CC2)C1` (centres unmarked) [Example 155, 1-[8-(5-chloro-thiophene-2-sulphonyl)-1-oxa-2,8-diaza-spiro[4,5]dec-2-ene-3-carbonyl]-piperidine-2-carboxylic acid ethyl ester] returned an inhibition at 10 µM of 41%. In the case of `O=C(NC1CCCC1OCc1ccccc1)C1=NOC2(CCN(S(=O)(=O)c3ccc(Cl)s3)CC2)C1` (centres unmarked) [Example 191], the “NA-uptake, 10 μM, % inhibition” value is recorded as 74%. Regarding `O=C(NCc1ccccc1)C1=NOC2(CCN(C(=O)COCc3ccccc3)CC2)C1` [Example 171, 8-(2-benzyloxy-acetyl)-1-oxa-2,8-diaza-spiro[4,5]dec-2-ene-3-carboxylic acid benzylamide], the inhibition at 10 µM worked out at 73%. As for `O=C(NCc1ccccc1)C1=NOC2(CCN(C(=O)c3cccc(SC(F)F)c3)CC2)C1` [Example 180, 8-(3-difluoromethylsulphanyl-benzoyl)-1-oxa-2,8-diaza-spiro[4,5]dec-2-ene-3-carboxylic acid benzylamide], the inhibition at 10 µM was determined as 61%. For the molecule `O=C(NCCc1ccc(F)cc1)C1=NOC2(CCN(S(=O)(=O)c3ccc(OC(F)(F)F)cc3)CC2)C1` [Example 129, 8-(4-trifluoromethoxy-benzenesulphonyl)-1-oxa-2,8-diaza-spiro[4,5]dec-2-ene-3-carboxylic acid [2-(4-fluorophenyl)-ethyl]-amide], the inhibition at 10 µM amounted to 43%. The same measure, in the same setting: the value for `Cc1ccc(C(C)NC(=O)C2=NOC3(CCN(S(=O)(=O)c4cccs4)CC3)C2)cc1` (centres unmarked) [Example 23, 8-(thiophene-2-sulphonyl)-1-oxa-2,8-diaza-spiro[4,5]dec-2-ene-3-carboxylic acid (1-p-tolyl-ethyl)-amide] was 49%; that for `O=C(NCC1CC1)C1=NOC2(CCN(C(=O)c3ccc(C(F)(F)F)cc3)CC2)C1` [Example 107, 8-(4-trifluoromethyl-benzoyl)-1-oxa-2,8-diaza-spiro[4,5]dec-2-ene-3-carboxylic acid cyclopropylmethyl-amide] was 42%.

The molecule `O=C(NCCc1cccc(F)c1)C1=NOC2(CCN(S(=O)(=O)Cc3ccccc3)CC2)C1` [Example 78, 8-phenylmethanesulphonyl-1-oxa-2,8-diaza-spiro[4,5]dec-2-ene-3-carboxylic acid [2-(3-fluorophenyl)-ethyl]-amide] came in with an inhibition at 10 µM of 42%.

As for `COC(=O)C(Cc1ccc(Cl)cc1)NC(=O)C1=NOC2(CCN(S(=O)(=O)c3ccc(OC)cc3)CC2)C1` (centres unmarked) [Example 200], the “NA-uptake, 10 μM, % inhibition” value stood at 43%. `CN(C)S(=O)(=O)N1CCC2(CC1)CC(C(=O)NC1CCCC1OCc1ccccc1)=NO2` (centres unmarked) [Example 163, 8-dimethylsulphamoyl-1-oxa-2,8-diaza-spiro[4,5]dec-2-ene-3-acarboxylic cid (2-benzyloxy-cyclopentyl)-amide]: the “NA-uptake, 10 μM, % inhibition” value is 62%. Consider `O=C(NCCCn1ccnc1)C1=NOC2(CCN(S(=O)(=O)c3ccc(F)cc3)CC2)C1` [Example 142, 8-(4-fluoro-benzenesulphonyl)-1-oxa-2,8-diaza-spiro[4,5]dec-2-ene-3-carboxylic acid (3-imidazol-1-yl-propyl)-amide], for which the inhibition at 10 µM was 49%. Still for that read-out and setting: as for `CC(C)CC(NC(=O)C1=NOC2(CCN(S(=O)(=O)c3cccs3)CC2)C1)C(=O)OC(C)(C)C` (centres unmarked) [Example 145, 4-methyl-2-{[8-(thiophene-2-sulphonyl)-1-oxa-2,8-diaza-spiro[4,5]dec-2-ene-3-carbonyl]-amino]-pentanoic acid tert-butyl ester], the figure is 46%; as for `Cc1onc(-c2c(F)cccc2Cl)c1C(=O)N1CCC2(CC1)CC(C(=O)NCc1ccccc1)=NO2` [Example 177, 8-[3-(2-chloro-6-fluorophenyl)-5-methyl-isoxazole-4-carbonyl]-1-oxa-2,8-diaza-spiro [4,5]dec-2-ene-3-carboxylic acid benzylamide], 47%. Same read-out and setting: as for `Cc1ccc(S(=O)(=O)N2CCC3(CC2)CC(C(=O)Nc2ccc(Oc4ccccc4)cc2)=NO3)cc1` [Example 22, 8-(toluene-4-sulphonyl)-1-oxa-2,8-diaza-spiro[4,5]dec-2-ene-3-carboxylic acid (4-phenoxy-phenyl)-amide], the figure is 42%; as for `O=C(NCCCc1ccccc1)C1=NOC2(CCN(S(=O)(=O)c3ccc(F)cc3)CC2)C1` [Example 193, 8-(4-fluoro-benzenesulphonyl)-1-oxa-2,8-diaza-spiro[4,5]dec-2-ene-3-carboxylic acid (3-phenyl-propyl)-amide], 47%; as for `CN(C)CCNC(=O)C1=NOC2(CCN(S(=O)(=O)c3ccccc3)CC2)C1` [Example 13, 8-benzenesulphonyl-1-oxa-2,8-diaza-spiro[4,5]dec-2-ene-3-carboxylic acid (2-dimethylamino-ethyl)-amide], 43%. The molecule `O=C(NCC(c1ccccc1)c1ccccc1)C1=NOC2(CCN(S(=O)(=O)c3ccc(Cl)s3)CC2)C1` [Example 79, 8-(5-chloro-thiophene-2-sulphonyl)-1-oxa-2,8-diaza-spiro[4,5]dec-2-ene-3-carboxylic acid (2,2-diphenyl-ethyl)-amide] yielded an inhibition at 10 µM of 58%. `CN(C)S(=O)(=O)N1CCC2(CC1)CC(C(=O)NCCc1ccccc1)=NO2` [Example 7, 8-dimethylsulphamoyl-1-oxa-2,8-diaza-spiro[4,5]dec-2-ene-3-carboxylic acid phenethyl-amide] showed an inhibition at 10 µM of 50%. Regarding `O=C(NCc1ccccc1)C1=NOC2(CCN(C(=O)c3ccc(Br)cc3)CC2)C1` [Example 212, 8-(4-bromo-benzoyl)-1-oxa-2,8-diaza-spiro[4,5]dec-2-ene-3-carboxylic acid benzylamide], the inhibition at 10 µM amounted to 55%. Same read-out and setting: the value for `O=C(NCc1ccccc1)C1=NOC2(CCN(S(=O)(=O)c3cccc(Cl)c3)CC2)C1` [Example 210, 8-(3-chloro-benzenesulphonyl)-1-oxa-2,8-diaza-spiro[4,5]dec-2-ene-3-carboxylic acid benzylamide] was 42%; that for `O=C(NCC1COc2ccccc2O1)C1=NOC2(CCN(S(=O)(=O)c3ccc(Cl)s3)CC2)C1` (centres unmarked) [Example 194, 8-(5-chloro-thiophene-2-sulphonyl)-1-oxa-2,8-diaza-spiro[4,5]dec-2-ene-3-carboxylic acid (2,3-dihydro-benzo[1,4]dioxin-2-ylmethyl)-amide] was 65%; that for `O=C(NCc1ccccc1)C1=NOC2(CCN(C(=O)COc3cccc(Cl)c3)CC2)C1` [Example 166, 8-[2-(3-chloro-phenoxy)-acetyl]-1-oxa-2,8-diaza-spiro[4,5]dec-2-ene-3-carboxylic acid benzylamide] was 53%.

Broadly, the inhibition is how much of the control response was suppressed. Lower therefore signals a weak effect.

The values above are taken from patent US8557796B2, “Substituted 1-oxa-2,8-diaza-spiro [4,5] dec-2-ene derivatives and related treatment methods” (Gruenenthal GmbH, priority 2001, dated 2013).
